Measured values from patent publication US20220296590A1, “STEREOISOMERS OF THE COMPOUND 3-(BENZO[D][1,3]DIOXOL-5-YL)-7-(1-HYDROXYPROPAN-2-YL)-1-(1H-INDOL-3-YL)-6,7-DIHYDRO-3H-OXAZOL[3,4-A]PYRAZINE-5,8-DIONE AND USE THEREOF AS AN ANTITUMOR AGENT AND PHOSPHODIESTERASE ENZYME INHIBITOR” (BIOLAB SANUS FARMACEUTICA LTDA, priority 2019, published 2022).

Assays:
[1] = biological target: T1, PDE5A1 enzyme (Homo sapiens, UniProt O76074); assay: In vitro inhibition of human phosphodiesterase enzyme 5 (BPS Bioscience PDE5A1 assay kit, fluorescence polarization); assay type: biochemical
T1 construct: purchased BPS Bioscience 60350
Experimental: The evaluation of the compound is studied using BPS Bioscience enzyme assay kit (catalogue 60350). The PDE5A1 Assay kit is designed for identification of PDE5A1 inhibitors using fluorescence polarization. The assay is based on the binding of a fluorescent nucleotide monophosphate generated by PDE5A1 enzyme to the binding agent.
In this methodology only two simple steps on a microtiter plate are required for PDE5A1 reactions. First, the fluorescently labeled cGMP is incubated with PDE5A1 for 1 hour. Second, the binding agent is added to the reaction mixture to produce a change in fluorescent polarization that can then be measured using a fluorescence reader equipped for the measurement of fluorescence polarization.
For the assay the storage reagent FAM-Cyclic-3′, 5′-GMP (20 μM) is diluted with PDE assay buffer to achieve the solution with a […] concentration; the PDE5A1 enzyme is thawed and diluted with the PDE buffer obtaining a PDE5A1 solution at 10 pg/mL.
The assay compounds are diluted with DMSO 100% (v/v) at a concentration of 1000 μM and subsequently diluted in a Sodium chloride 0.9% solution to obtain a curve of concentrations of interest for the assay. The compounds are diluted in concentrations of: 10 nM, 30 nM, 50 nM, 100 nM, 300 nM, 500 nM, 1 μM, 3 μM, 5 μM (DMSO 10% v/v).
The study is comprised of groups: (i) substrate control; (ii) positive control (KIT); (iii) samples in several concentrations; (iv) tadalafil (comparative control). Each parameter (group) is triple labeled.
For the 4 groups there is added, to each microplate well, […] of the FAM-Cyclic-3′ reagent, 5′-GMP (200 μM).
To the substrate control group there is added, to each well, […] of vehicle (DMSO 10% v/v) and […] PDE Buffer.
To the positive control group there is added, to each well, […] of vehicle (DMSO 10% v/v).
To the tadalafil group: there is added […] of the solution in the concentrations of interest.
To the test group there is added […] of the sample solution (test compound)
OBSERVATION: the parameters tested are in triplicate.
To begin the reaction, add […] of the PDE5A1 enzyme (diluted as described above) to the microplate wells designated as Positive Control and Samples (test and tadalafil), and incubate the microplate, for 1 hour, at a temperature of 25° C.
After the incubation period, the reaction is interrupted by the addition, in all the wells, of […] of the binding agent solution and the microplate is incubated for 30 minutes, under light stirring, at room temperature. The reading of the microplate is carried out in Polarized Fluorescence (475-495 nm—excitation and 518-538 nm—emission detection) 500 nanoseconds integration time.

[2] = test system: PC3-human prostate cancer cells; assay: Antiproliferative effect in tumor cell culture (CYQuant intracellular DNA, 72 hours), PC3; assay type: cell-based; conditions: for % Cell Proliferation Inhibition (intracellular DNA) PC-3 (average ± E.P.M.): 72 hours
Experimental: (§1) For the execution of the assay, the compounds are diluted in DMSO 100% (v/v) at a concentration of 1000 μM and subsequently diluted in a Sodium Chloride solution 0.9% to obtain the storage solutions of interest for use in the assays. The final concentration of interest will be directly diluted in the cell culture medium. For the assay there are used the following tumor cell lineages: PC3-human prostate cancer cells; LNCAP-human prostate cancer cells; DU145-human prostate cancer; MNK45-human gastric cancer and RT4-human bladder cancer cells. The tumor cell lineages are maintained in culture according to standard procedures established by the Cell Bank of Rio de Janeiro (lineage place of origin). For the assay, the tumor cells are seeded in the concentration of 10.000 cells per well (final volume of the reaction of […]), the plate is incubated for 8 hours, for the cells to adhere to the wall of the wells. After this period, the plate is divided in groups: • (a) test group: […] of the samples were added (test compound) in the concentrations of interest; • (b) positive control group: […] of culture medium were added (100% of cell proliferation); • (c) negative control group: 200 mL of culture medium and […] of the vehicle used were added to dilute the compounds (without cells—zero proliferation); • (d) control group: […] were added of the vehicle used to dilute the compounds. This group is important to evaluate whether the vehicle used interferes in the cell proliferation. OBSERVATION: the treatment with the concentrations of samples (test compounds) and of the controls are carried out in triplicate. Incubate the plate for 72 hours in a CO2 kiln at 37° C. After the incubation period, add […]/well of the solution with DNA marker from the CYQuant Kit and incubate the plate, for 60 minutes, in a CO2 incubator at 37° C. The fluorescence intensity is determined using a fluorescence microplate reader with 485 nm excitation and 530 nm emission detection. The results obtained were normalized relative to the positive control group (100% proliferation). For the compounds there are prepared the storage solutions in the concentrations of: 100 nM, 1 μM, 3 μM, 5 μM, 10 μM and 30 μM (DMSO 10% v/v). While the final concentrations in the test are of: 10 nM, 100 nM, 300 nM, 500 nM, 1000 nM and 3000 nM (in DMSO 1% v/v).

[3] = test system: LNCAP-human prostate cancer cells; assay: Antiproliferative effect in tumor cell culture (CYQuant intracellular DNA, 72 hours), LNCAP; assay type: cell-based; conditions: for % Cell Proliferation Inhibition (intracellular DNA) LNCAP (average ± E.P.M.): 72 hours
Experimental: as §1

[4] = test system: DU145-human prostate cancer; assay: Antiproliferative effect in tumor cell culture (CYQuant intracellular DNA, 72 hours), DU145; assay type: cell-based; conditions: for % Cell Proliferation Inhibition (intracellular DNA) DU145 (average ± E.P.M.): 72 hours
Experimental: as §1

[5] = test system: MNK45-human gastric cancer; assay: Antiproliferative effect in tumor cell culture (CYQuant intracellular DNA, 72 hours), MNK45; assay type: cell-based
Experimental: as §1

[6] = test system: RT4-human bladder cancer cells; assay: Antiproliferative effect in tumor cell culture (CYQuant intracellular DNA, 72 hours), RT4; assay type: cell-based; conditions: for % Cell Proliferation Inhibition (intracellular DNA) RT4 (average ± E.P.M.): 72 hours
Experimental: as §1

`CC(CO)N1CC(=O)N2C(=C(c3c[nH]c4ccccc34)OC2c2ccc3c(c2)OCO3)C1=O` (mixture of isomers) [BL-241, (R)-3-(benzo[d][1,3]dioxol-5-yl)-7-((S)-1-hydroxypropan-2-yl)-1-(1H-indole-3-yl)-6,7-dihydro-3H-oxazole[3,4-a]pyrazine-5,8-dione with (S)-3-(benzo[d][1,3]dioxol-5-yl)-7-((S)-1-hydroxypropan-2-yl)-1-(1H-indole-3-yl)-6,7-dihydro-3H -oxazole[3,4-a]pyrazine-5,8-dione] was tested, and the “% of Inhibition (PDE5A1)” value ([1]; 500 nM, 0.5 µM) was 57%, the “% of Inhibition (PDE5A1)” value ([1]; 1000 nM, 1 µM) was 71% and the “% of Inhibition (PDE5A1)” value ([1]; 3000 nM, 3 µM) was 88%. For the same compound, the “PDE5 inhibition, result in words” value ([1]; over the concentrations tested) was “capable of inhibiting the PDE5 in a dose-dependent manner”, the “% Cell Proliferation Inhibition (intracellular DNA) PC-3 (average ± E.P.M.)” value ([2]; 10 nM, 0.01 µM) was 27 ± 11% and the “% Cell Proliferation Inhibition (intracellular DNA) PC-3 (average ± E.P.M.)” value ([2]; 100 nM, 0.1 µM) was 36 ± 7%. For the same compound, the “% Cell Proliferation Inhibition (intracellular DNA) PC-3 (average ± E.P.M.)” value ([2]; 300 nM, 0.3 µM) was 42 ± 6%, the “% Cell Proliferation Inhibition (intracellular DNA) PC-3 (average ± E.P.M.)” value ([2]; 500 nM, 0.5 µM) was 46 ± 1% and the “% Cell Proliferation Inhibition (intracellular DNA) PC-3 (average ± E.P.M.)” value ([2]; 1000 nM, 1 µM) was 33 ± 3%. For the same compound, the “antiproliferative effect, result in words” value ([2]; PC3 prostate cancer tumor lineage) was “antiproliferative effect”, the “% Cell Proliferation Inhibition (intracellular DNA) LNCAP (average ± E.P.M.)” value ([3]; 10 nM, 0.01 µM) was 25 ± 2% and the “% Cell Proliferation Inhibition (intracellular DNA) LNCAP (average ± E.P.M.)” value ([3]; 100 nM, 0.1 µM) was 37 ± 3%. The “% Cell Proliferation Inhibition (intracellular DNA) LNCAP (average ± E.P.M.)” value ([3]; 300 nM, 0.3 µM) was 38 ± 4%, the “% Cell Proliferation Inhibition (intracellular DNA) LNCAP (average ± E.P.M.)” value ([3]; 500 nM, 0.5 µM) was 44 ± 2% and the “% Cell Proliferation Inhibition (intracellular DNA) LNCAP (average ± E.P.M.)” value ([3]; 1000 nM, 1 µM) was 34 ± 6%. The “antiproliferative effect, result in words” value ([3]; LNCAP prostate cancer tumor lineage) was “antiproliferative effect”, the “% Cell Proliferation Inhibition (intracellular DNA) DU145 (average ± E.P.M.)” value ([4]; 100 nM, 0.1 µM) was 33 ± 8% and the “% Cell Proliferation Inhibition (intracellular DNA) DU145 (average ± E.P.M.)” value ([4]; 300 nM, 0.3 µM) was 17 ± 3%. The “% Cell Proliferation Inhibition (intracellular DNA) DU145 (average ± E.P.M.)” value ([4]; 500 nM, 0.5 µM) was 18 ± 2%, the “% Cell Proliferation Inhibition (intracellular DNA) DU145 (average ± E.P.M.)” value ([4]; 1000 nM, 1 µM) was 22 ± 2% and the “% Cell Proliferation Inhibition (intracellular DNA) DU145 (average ± E.P.M.)” value ([4]; 3000 nM, 3 µM) was 43 ± 5%. The “antiproliferative effect, result in words” value ([4]; DU145 prostate cancer tumor lineage) was “antiproliferative effect”, the “% Cell Proliferation Inhibition (intracellular DNA) MNK45 (average ± E.P.M.)” value ([5]; 100 nM, 0.1 µM) was 25 ± 1% and the “% Cell Proliferation Inhibition (intracellular DNA) MNK45 (average ± E.P.M.)” value ([5]; 300 nM, 0.3 µM) was 10 ± 2%. For the same compound, the “% Cell Proliferation Inhibition (intracellular DNA) MNK45 (average ± E.P.M.)” value ([5]; 500 nM, 0.5 µM) was 2 ± 1%, the “% Cell Proliferation Inhibition (intracellular DNA) MNK45 (average ± E.P.M.)” value ([5]; 1000 nM, 1 µM) was 4 ± 1% and the “% Cell Proliferation Inhibition (intracellular DNA) MNK45 (average ± E.P.M.)” value ([5]; 3000 nM, 3 µM) was 20 ± 3%. The “% Cell Proliferation Inhibition (intracellular DNA) RT4 (average ± E.P.M.)” value ([6]; 100 nM, 0.1 µM) was 28 ± 6%, the “% Cell Proliferation Inhibition (intracellular DNA) RT4 (average ± E.P.M.)” value ([6]; 300 nM, 0.3 µM) was 5 ± 2% and the “% Cell Proliferation Inhibition (intracellular DNA) RT4 (average ± E.P.M.)” value ([6]; 500 nM, 0.5 µM) was 4 ± 2%. The “% Cell Proliferation Inhibition (intracellular DNA) RT4 (average ± E.P.M.)” value ([6]; 1000 nM, 1 µM) was 11 ± 8%, the “% Cell Proliferation Inhibition (intracellular DNA) RT4 (average ± E.P.M.)” value ([6]; 3000 nM, 3 µM) was 57 ± 4% and the “antiproliferative effect, result in words” value ([6]; RT4 bladder cancer tumor lineage) was “antiproliferative effect”.
